Experimental data taken from patent US20200048305A1, “GLUTATHIONE-CHOLESTEROL DERIVATIVES AS BRAIN TARGETING AGENTS” (South Dakota Board of Regents, priority 2018, published 2020).

Columns and labels:
[1] = Chemical stability of GUNW-3 in methanol-ammonium aqueous solution; assay type: physicochemical; conditions: methanol-ammonium aqueous solution (1:1), pH 10.8, 4° C., checked 7 days
Procedure: The stability of GUNW-3 in a methanol-ammonium aqueous solution (1:1) at pH 10.8, the pH GUNW-3 was soluble, was checked continuously for 7 days at 4° C. (FIG. 4). […] However, it started to decompose quickly after 3 days.

[2] = tested on: CV-1 cells (monkey kidney cells); experiment: In-vitro cytotoxicity by the MTT assay, CV-1 cells; assay type: cell-based; conditions: Primates
[3] = tested on: NCI-H226 cells (human lung cancer cells); experiment: In-vitro cytotoxicity by the MTT assay, NCI-H226 cells; assay type: cell-based
[4] = Brain-targeting of GUNW-3 DiR micelles, in-vivo whole body fluorescence imaging

presence in the spinal cord ([4]; mice, lateral image at 1 h) | brain distribution (lateral images) ([4]; mice, tail vein injection, 5 μg DiR, lateral images at 1 h) | Compound | stability of GUNW-3 [1] | IC50 [2] [µM] | IC50 [3] [µM] | distribution in liver ([4]; when delivered in micelles)
– | – | CC(C)CCCC(C)C1CCC2C3CC=C4CC(OCCOCCOC(=O)CCSCC(NC(=O)CCC(N)C(=O)O)C(=O)NCC(=O)O)CC[C@@]4(C)C3CC[C@@]12C (stereo partly drawn) [GUNW-3] | stable in the first 3 days | 650 | 470 | low distribution in liver
not observed | no significant brain distribution | CCCCCCCCCCCCCCCCCCN1/C(=C/C=C/C=C/C=C/C2=[N+](CCCCCCCCCCCCCCCCCC)c3ccccc3C2(C)C)C(C)(C)c2ccccc21.[I-] [free DiR] | – | – | – | –
